Measurements as given in US10189854B2, “Substituted pyrimidine compounds” (Grünenthal GmbH, priority 2014, dated 2019).

Target: human PDE4B1 (Homo sapiens (Human), UniProt Q07343)
Experiment: cAMP HTRF assay to determine the activity of hPDE4B1
Type: biochemical
Conditions: IC50 inhibition of PDE4B; human recombinant PDE4B1, cAMP HTRF assay
Method in brief: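 Recombinant human PDE4B1 expressed in Sf9 cells (4.8 U) was incubated with 40 nM cAMP for 30 min at room temperature in Tris buffer, pH 7.8, with MgCl2, DTT and Tween 20. HTRF detection of remaining cAMP followed, with 1 mM IBMX stop, read 60 min later as the 665/620 nm ratio. Results are % inhibition versus control.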

human PDE4B1, sequence (Q07343 whole entry): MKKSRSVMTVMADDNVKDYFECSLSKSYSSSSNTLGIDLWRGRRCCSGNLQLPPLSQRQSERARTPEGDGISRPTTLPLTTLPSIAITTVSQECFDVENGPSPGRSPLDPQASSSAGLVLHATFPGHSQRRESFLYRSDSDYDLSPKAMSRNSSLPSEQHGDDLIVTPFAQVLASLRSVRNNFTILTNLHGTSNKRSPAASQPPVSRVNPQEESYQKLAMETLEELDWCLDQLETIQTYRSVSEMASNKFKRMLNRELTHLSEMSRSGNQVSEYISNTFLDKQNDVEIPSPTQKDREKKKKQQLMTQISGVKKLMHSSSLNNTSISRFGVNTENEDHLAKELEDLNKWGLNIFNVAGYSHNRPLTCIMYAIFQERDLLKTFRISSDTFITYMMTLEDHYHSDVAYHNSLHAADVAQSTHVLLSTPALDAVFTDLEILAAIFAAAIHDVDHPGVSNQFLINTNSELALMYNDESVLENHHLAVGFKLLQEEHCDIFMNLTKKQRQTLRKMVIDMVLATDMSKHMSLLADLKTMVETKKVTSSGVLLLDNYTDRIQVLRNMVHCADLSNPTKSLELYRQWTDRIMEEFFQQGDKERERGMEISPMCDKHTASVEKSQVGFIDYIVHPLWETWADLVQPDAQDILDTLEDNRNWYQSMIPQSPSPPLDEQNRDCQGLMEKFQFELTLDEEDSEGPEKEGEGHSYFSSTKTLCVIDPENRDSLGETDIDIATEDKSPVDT

| IC50 | Compound |
| --- | --- |
| < 0.1 µM | Morpholin-4-yl-[1-(5-pyrimidin-4-yl-pyrimidin-2-yl)-spiro[1,2-di-hydro-indole-3,1′-cyclopropane]-6-yl]-methanone [Compound 190] |
| 0.1 to 1 µM | O=C(c1ccc2c(c1)N(c1ncc(-c3ccccc3F)cn1)CC21CC1)N1CCS(=O)(=O)CC1 [Compound 106, (1,1-Dioxo-[1,4]thiazinan-4-yl)-[1-[5-(2-fluorophenyl)-pyrimidin-2-yl]-spiro[1,2-dihydro-indole-3,1′-cyclopropane]-6-yl]-methanone] |
| < 0.1 µM | O=C(c1ccc2c(c1)N(c1ncc(-c3ccncc3F)cn1)CC21CC1)N1CCOCC1 [Compound 147, [1-[5-(3-Fluoro-pyridin-4-yl)-pyrimidin-2-yl]-spiro[1,2-dihydro-indole-3,1′-cyclopropane]-6-yl]-morpholin-4-yl-methanone] |
| < 0.1 µM | O=C(c1ccc2c(c1)N(c1ncc(-c3cccc(F)c3)cn1)CC21CC1)N1CCCC1 [Compound 130, [1-[5-(3-Fluorophenyl)-pyrimidin-2-yl]-spiro[1,2-dihydro-indole-3,1′-cyclopropane]-6-yl]-pyrrolidin-1-yl-methanone] |
| 0.1 to 1 µM | O=C(c1ccc2c(c1)N(c1ncc(-c3ccc(F)cc3F)cn1)CC21CC1)N1CCNCC1 [Compound 71, [1-[5-(2,4-Difluoro-phenyl)-pyrimidin-2-yl]-spiro[1,2-dihydro-indole-3,1′-cyclopropane]-6-yl]-piperazin-1-yl-methanone] |
| < 0.1 µM | Cn1cc(-c2cnc(N3CC4(CC4)c4ccc(C(=O)N5CCOCC5)cc43)nc2)cn1 [Compound 138, [1-[5-(1-Methyl-1H-pyrazol-4-yl)-pyrimidin-2-yl]-spiro[1,2-dihydro-indole-3,1′-cyclopropane]-6-yl]-morpholin-4-yl-methanone] |
| 0.1 to 1 µM | CC1(C)CN(c2ncc(-c3ccccc3F)cn2)c2cc(C(=O)N3CCOCC3)ccc21 [Compound 9, [1-[5-(2-Fluorophenyl)-pyrimidin-2-yl]-3,3-dimethyl-1,2-dihydro-indol-6-yl]-morpholin-4-yl-methanone] |
| < 0.1 µM | O=C(c1ccc2c(c1)N(c1ncc(-c3cccc(F)c3F)cn1)CC21CC1)N1CCOCC1 [Compound 15, [1-[5-(2,3-Difluoro-phenyl)-pyrimidin-2-yl]-spiro[1,2-dihydro-indole-3,1′-cyclopropane]-6-yl]-morpholin-4-yl-methanone] |
| < 0.1 µM | O=C(c1ccc2c(c1)N(c1ncc(-c3ccccc3F)cn1)CC21CC1)N1CC[C@@H](O)C1 [Compound 44, [1-[5-(2-Fluorophenyl)-pyrimidin-2-yl]-spiro[1,2-dihydro-indole-3,1′-cyclopropane]-6-yl]-[(3R)-3-hydroxy-pyrrolidin-1-yl]-methanone] |
| < 0.1 µM | O=C(c1ccc2c(c1)N(c1ncc(-c3ccsc3Cl)cn1)CC21CC1)N1CCOCC1 [Compound 132, [1-[5-(2-Chloro-thiophen-3-yl)-pyrimidin-2-yl]-spiro[1,2-dihydro-indole-3,1′-cyclopropane]-6-yl]-morpholin-4-yl-methanone] |
| 0.1 to 1 µM | O=C(c1ccc2c(c1)N(c1ncc(-c3ccccc3F)cn1)CC21CC1)N1CC2CC1CN2CCO (centres unmarked) [Compound 218, [1-[5-(2-Fluorophenyl)-pyrimidin-2-yl]-spiro[1,2-dihydro-indole-3,1′-cyclopropane]-6-yl]-[5-(2-hydroxy-ethyl)-2,5-diazabicyclo[2.2.1]heptan-2-yl]-methanone] |
| < 0.1 µM | N#Cc1ccc(F)c(-c2cnc(N3CC4(CC4)c4ccc(C(=O)N5CC[C@@H](N)C5)cc43)nc2)c1 [Compound 123, 3-[2-[6-[(3R)-3-Amino-pyrrolidine-1-carbonyl]-spiro[1,2-dihydro-indole-3,1′-cyclopropane]-1-yl]-pyrimidin-5-yl]-4-fluoro-benzonitrile] |
| 0.1 to 1 µM | O=C(c1ccc2c(c1)N(c1ncc(-c3cccc(Cl)c3)cn1)CC21CC1)N1CCOCC1 [Compound 51, [1-[5-(3-Chlorophenyl)-pyrimidin-2-yl]-spiro[1,2-dihydro-indole-3,1′-cyclopropane]-6-yl]-morpholin-4-yl-methanone] |
| < 0.1 µM | O=C(c1ccc2c(c1)N(c1ncc(-c3ccccc3F)cn1)CC21CC1)N1CCCC(O)C1 (centres unmarked) [Compound 96, [1-[5-(2-Fluorophenyl)-pyrimidin-2-yl]-spiro[1,2-dihydro-indole-3,1′-cyclopropane]-6-yl]-(3-hydroxy-piperidin-1-yl)-methanone] |
| < 0.1 µM | CN(CCO)C(=O)c1ccc2c(c1)N(c1ncc(-c3ccccc3F)cn1)CC21CC1 [Compound 95, 1-[5-(2-Fluorophenyl)-pyrimidin-2-yl]-N-(2-hydroxy-ethyl)-N-methyl-spiro[1,2-dihydro-indole-3,1′-cyclopropane]-6-carboxylic acid amide] |
| < 0.1 µM | CN(C)C(=O)c1ccc2c(c1)N(c1ncc(-c3cccc(F)c3)cn1)CC21CC1 [Compound 125, 1-[5-(3-Fluorophenyl)-pyrimidin-2-yl]-N,N-dimethyl-spiro[1,2-dihydro-indole-3,1′-cyclopropane]-6-carboxylic acid amide] |

| IC50 | Compound |
| --- | --- |
| < 0.1 µM | CC(=O)Nc1ccc(-c2cnc(N3CC4(CC4)c4ccc(C(=O)N5CCOCC5)cc43)nc2)s1 [Compound 158, N-[5-[2-[6-(Morpholine-4-carbonyl)-spiro[1,2-dihydro-indole-3,1′-cyclopropane]-1-yl]-pyrimidin-5-yl]-thiophen-2-yl]-acetamide] |
| < 0.1 µM | 4-[1-[5-(3-Fluorophenyl)-pyrimidin-2-yl]-spiro[1,2-dihydro-indole-3,1′-cyclopropane]-6-carbonyl]-piperazin-2-one [Compound 188] |
| < 0.1 µM | Morpholin-4-yl-[1-(5-pyridazin-4-yl-pyrimidin-2-yl)-spiro[1,2-dihydro-indole-3,1′-cyclopropane]-6-yl]-methanone [Compound 200] |
| < 0.1 µM | Cc1ccc(F)c(-c2cnc(N3CC4(CC4)c4ccc(C(=O)N5CCOCC5)cc43)nc2)c1 [Compound 52, [1-[5-(2-Fluoro-5-methyl-phenyl)-pyrimidin-2-yl]-spiro[1,2-dihydro-indole-3,1′-cyclopropane]-6-yl]-morpholin-4-yl-methanone] |
| 0.1 to 1 µM | O=C(c1ccc2c(c1)N(c1ncc(-c3ccccc3F)cn1)CC21CC1)N1CCC(CO)CC1 [Compound 98, [1-[5-(2-Fluorophenyl)-pyrimidin-2-yl]-spiro[1,2-dihydro-indole-3,1′-cyclopropane]-6-yl]-[4-(hydroxymethyl)-piperidin-1-yl]-methanone] |
| < 0.1 µM | CN(CCO)C(=O)c1ccc2c(c1)N(c1ncc(-c3cnn(C)c3)cn1)CC21CC1 [Compound 199, N-(2-Hydorxy-ethyl)-N-methyl-1-[5-(1-methyl-1H-pyrazol-4-yl)-pyrimidin-2-yl]-spiro[1,2-dihydro-indole-3,1′-cyclopropane]-6-carboxylic acid amide] |
| < 0.1 µM | NC(=O)c1cccc(-c2cnc(N3CC4(CC4)c4ccc(C(=O)N5CCOCC5)cc43)nc2)c1 [Compound 54, 3-[2-[6-(Morpholine-4-carbonyl)-spiro[1,2-dihydro-indole-3,1′-cyclopropane]-1-yl]-pyrimidin-5-yl]-benzamide] |
| < 0.1 µM | [1-[5-(6-Methyl-pyridin-2-yl)-pyrimidin-2-yl]-spiro[1,2-dihydro-indole-3,1′-cyclopropane]-6-yl]-morpholin-4-yl-methanone [Compound 186] |
| 1 to 10 µM | O=C(NCC1CCOCC1)c1ccc2c(c1)N(c1ncc(-c3ccccc3F)cn1)CC21CC1 [Compound 82, 1-[5-(2-Fluorophenyl)-pyrimidin-2-yl]-N-(tetrahydro-pyran-4-yl-methyl)-spiro[1,2-dihydro-indole-3,1′-cyclopropane]-6-carboxylic acid amide] |
| < 0.1 µM | 4-[1-[5-(3-Methoxyphenyl)-pyrimidin-2-yl]-spiro[1,2-dihydro-indole-3,1′-cyclopropane]-6-carbonyl]-piperazin-2-one [Compound 189] |
| < 0.1 µM | [1-[5-(6-Fluoro-pyrimidin-4-yl)-pyrimidin-2-yl]-spiro[1,2-dihydro-indole-3,1′-cyclopropane]-6-yl]-morpholin-4-yl-methanone [Compound 205] |
| < 0.1 µM | COc1cccc(-c2cnc(N3CC4(CC4)c4ccc(C(=O)N(C)CCO)cc43)nc2)n1 [Compound 211, N-(2-Hydroxy-ethyl)-1-[5-(6-methoxy-pyridin-2-yl)-pyrimidin-2-yl]-N-methyl-spiro[1,2-dihydro-indole-3,1′-cyclopropane]-6-carboxylic acid amide] |
| < 0.1 µM | CC(=O)N1CCNC(C(=O)c2ccc3c(c2)N(c2ncc(-c4ccccc4F)cn2)CC32CC2)C1 (centres unmarked) [Compound 85, 1-[5-[1-[5-(2-Fluorophenyl)-pyrimidin-2-yl]-spiro[1,2-dihydro-indole-3,1′-cyclopropane]-6-carbonyl]-piperazin-1-yl]-ethanone] |
| 0.1 to 1 µM | O=C(c1ccc2c(c1)N(c1ncc(-c3ccccc3F)cn1)CC21CC1)N1CC[C@H](O)C1 [Compound 45, [1-[5-(2-Fluorophenyl)-pyrimidin-2-yl]-spiro[1,2-dihydro-indole-3,1′-cyclopropane]-6-yl]-[(3S)-3-hydroxy-pyrrolidin-1-yl]-methanone] |
| < 0.1 µM | O=C(c1ccc2c(c1)N(c1ncc(-c3cc(C(F)(F)F)ccc3F)cn1)CC21CC1)N1CCOCC1 [Compound 23, [1-[5-[2-Fluoro-5-(trifluoromethyl)-phenyl]-pyrimidin-2-yl]-spiro[1,2-dihydro-indole-3,1′-cyclopropane]-6-yl]-morpholin-4-yl-methanone] |

| Compound | IC50 |
| --- | --- |
| Cn1cccc1-c1cnc(N2CC3(CC3)c3ccc(C(=O)N4CCOCC4)cc32)nc1 [Compound 141, [1-[5-(1-Methyl-1H-pyrrol-2-yl)-pyrimidin-2-yl]-spiro[1,2-dihydro-indole-3,1′-cyclopropane]-6-yl]-morpholin-4-yl-methaone] | < 0.1 µM |
